According to PubChem BioAssay (NCI):
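Results reflect a 48-hour exposure of cells in 96-well plates to compound at five concentrations. GI50 marks 50% less growth. TGI marks complete inhibition of growth.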

Assays:
Experiment in all cases: inhibition of tumour cell growth, NCI panel, 48 h
[1] = tested on: OVCAR-4 ovarian
[2] = tested on: RXF 393 renal
[3] = tested on: HCT-116 colon
[4] = tested on: SNB-19 CNS
[5] = tested on: TK-10 renal
[6] = tested on: BT-549 breast
[7] = tested on: DU-145 prostate
[8] = tested on: NCI-H522 lung
[9] = tested on: U251 CNS
[10] = tested on: NCI/ADR-RES ovarian
[11] = tested on: HOP-92 NSCLC
[12] = tested on: UO-31 renal
[13] = tested on: MALME-3M melanoma
[14] = tested on: HS 578T breast
[15] = tested on: CAKI-1 renal
[16] = tested on: CCRF-CEM leukemia
[17] = tested on: HL-60(TB) leukemia
[18] = tested on: OVCAR-3 ovarian
[19] = tested on: NCI-H460 lung
[20] = tested on: MOLT-4 leukemia
[21] = tested on: KM12 colon
[22] = tested on: NCI-H226 lung
[23] = tested on: SN12C renal
[24] = tested on: ACHN renal
[25] = tested on: MDA-MB-231 breast
[26] = tested on: SR leukemia
[27] = tested on: T-47D breast
[28] = tested on: HT29 colon
[29] = tested on: PC-3 prostate
[30] = tested on: SK-OV-3 ovarian
[31] = tested on: 786-0 renal
[32] = tested on: SK-MEL-5 melanoma
[33] = tested on: HOP-62 NSCLC
[34] = tested on: COLO 205 colon
[35] = tested on: SW-620 colon
[36] = tested on: EKVX NSCLC
[37] = tested on: SF-268 CNS
[38] = tested on: IGROV1 ovarian
[39] = tested on: M14 melanoma
[40] = tested on: RPMI-8226 leukemia
[41] = tested on: NCI-H23 lung
[42] = tested on: OVCAR-5 ovarian
[43] = tested on: SK-MEL-2 melanoma
[44] = tested on: HCC-2998 colon
[45] = tested on: A498 renal
[46] = tested on: A549 NSCLC
[47] = tested on: LOX IMVI melanoma
[48] = tested on: OVCAR-8 ovarian
[49] = tested on: SF-539 CNS
[50] = tested on: HCT-15 colon
[51] = tested on: MDA-MB-435
[52] = tested on: SK-MEL-28 melanoma
[53] = tested on: UACC-257 melanoma
[54] = tested on: SF-295 CNS
[55] = tested on: UACC-62 melanoma
[56] = tested on: MCF7 breast
[57] = tested on: SNB-75 CNS

## COc1cc(/C=C/C(=O)c2cccnc2Nc2ccc(F)cc2)cc(OC)c1OC
[1]
  GI50: 3.81 µM
  TGI: 19 µM
[2]
  GI50: 2.81 µM
  TGI: 8.97 µM
[3]
  GI50: 1.54 µM
  TGI: 2.96 µM
[4]
  GI50: 3.73 µM
  TGI: 33.2 µM
[5]
  GI50: 3.52 µM
  TGI: 9.5 µM
[6]
  GI50: 2.7 µM
  TGI: 6.72 µM
[7]
  GI50: 3.32 µM
  TGI: 12.4 µM
[8]
  GI50: 2.69 µM
  TGI: 7.04 µM
[9]
  GI50: 2.78 µM
  TGI: 11.5 µM
[10]
  GI50: 2.37 µM
  TGI: 8.14 µM
[11]
  GI50: 1.67 µM
  TGI: 5.65 µM
[12]
  GI50: 5.62 µM
  TGI: 48 µM
[13]
  GI50: 6.9 µM
  TGI: 48.9 µM
[14]
  GI50: 3.68 µM
  TGI: 95.2 µM
[15]
  GI50: 3.68 µM
  TGI: 39.5 µM
[16]
  GI50: 2.45 µM
  TGI: 9.87 µM
[17]
  GI50: 2.4 µM
  TGI: 7.15 µM
[18]
  GI50: 2.63 µM
  TGI: 6.61 µM
[19]
  GI50: 2.83 µM
  TGI: 10.1 µM
[20]
  GI50: 2.75 µM
  TGI: 9.52 µM
[21]
  GI50: 3.72 µM
  TGI: 17.6 µM
[22]
  GI50: 1.79 µM
  TGI: 3.78 µM
[23]
  GI50: 3.23 µM
  TGI: > 100 µM
[24]
  GI50: 2.84 µM
  TGI: 7.2 µM
[25]
  GI50: 3.07 µM
  TGI: 11.8 µM
[26]
  GI50: 1.93 µM
  TGI: 8.36 µM
[27]
  GI50: 3.96 µM
  TGI: 25 µM
[28]
  GI50: 2.75 µM
  TGI: 6.69 µM
[29]
  GI50: 3.95 µM
  TGI: 20 µM
[30]
  GI50: 3.1 µM
  TGI: 8.67 µM
[31]
  GI50: 3.9 µM
  TGI: 13 µM
[32]
  GI50: 2.51 µM
  TGI: 8.24 µM
[33]
  GI50: 2.9 µM
  TGI: 7.82 µM
[34]
  GI50: 2.64 µM
  TGI: 5.53 µM
[35]
  GI50: 3.3 µM
  TGI: 24.1 µM
[36]
  GI50: 3.94 µM
  TGI: > 100 µM
[37]
  GI50: 4.18 µM
  TGI: 17.6 µM
[38]
  GI50: 7.42 µM
  TGI: 50.3 µM
[39]
  GI50: 3.19 µM
  TGI: 9.94 µM
[40]
  GI50: 2.43 µM
  TGI: 8.07 µM
[41]
  GI50: 2.34 µM
  TGI: 7.77 µM
[42]
  GI50: 4.1 µM
  TGI: 17.8 µM
[43]
  GI50: 2.52 µM
  TGI: 5.26 µM
[44]
  GI50: 1.78 µM
  TGI: 3.45 µM
[45]
  GI50: 2.18 µM
  TGI: 8.28 µM
[46]
  GI50: 2.66 µM
  TGI: 11.5 µM
[47]
  GI50: 1.69 µM
  TGI: 3.59 µM
[48]
  GI50: 2.69 µM
  TGI: 13.4 µM
[49]
  GI50: 2.85 µM
  TGI: 7.29 µM
[50]
  GI50: 2.28 µM
  TGI: 5.95 µM
[51]
  GI50: 3.05 µM
  TGI: 69.3 µM
[52]
  GI50: 3.22 µM
  TGI: 17.3 µM
[53]
  GI50: 2.9 µM
  TGI: 21.6 µM
[54]
  GI50: 4.16 µM
  TGI: 69.4 µM
[55]
  GI50: 2.35 µM
  TGI: 6.58 µM
[56]
  GI50: 2.44 µM
  TGI: 13.6 µM
[57]
  GI50: 1.93 µM
  TGI: 8.51 µM
